Assay results published in patent publication US7335645B2, “Effectors of dipeptidyl peptidase IV for topical use” (Probiodrug AG, priority 1999, dated 2008).
Structures can show the parent of a compound that is named as a salt.

Tests used:
[1] = literature statement (Reinhold et al., 1998); cited from earlier work
plasma-DP IV = biological target: T1, plasma-DP IV (Rattus norvegicus, UniProt P14740); experiment: Inhibition of plasma-DP IV after oral administration in healthy Wistar rats; type: in vivo; details: 5 μmol/300 g rat
T1 construct: from tissue; host or cells: plasma of Wistar rats after oral dosing
T1 sequence (P14740 38-767 limits assumed): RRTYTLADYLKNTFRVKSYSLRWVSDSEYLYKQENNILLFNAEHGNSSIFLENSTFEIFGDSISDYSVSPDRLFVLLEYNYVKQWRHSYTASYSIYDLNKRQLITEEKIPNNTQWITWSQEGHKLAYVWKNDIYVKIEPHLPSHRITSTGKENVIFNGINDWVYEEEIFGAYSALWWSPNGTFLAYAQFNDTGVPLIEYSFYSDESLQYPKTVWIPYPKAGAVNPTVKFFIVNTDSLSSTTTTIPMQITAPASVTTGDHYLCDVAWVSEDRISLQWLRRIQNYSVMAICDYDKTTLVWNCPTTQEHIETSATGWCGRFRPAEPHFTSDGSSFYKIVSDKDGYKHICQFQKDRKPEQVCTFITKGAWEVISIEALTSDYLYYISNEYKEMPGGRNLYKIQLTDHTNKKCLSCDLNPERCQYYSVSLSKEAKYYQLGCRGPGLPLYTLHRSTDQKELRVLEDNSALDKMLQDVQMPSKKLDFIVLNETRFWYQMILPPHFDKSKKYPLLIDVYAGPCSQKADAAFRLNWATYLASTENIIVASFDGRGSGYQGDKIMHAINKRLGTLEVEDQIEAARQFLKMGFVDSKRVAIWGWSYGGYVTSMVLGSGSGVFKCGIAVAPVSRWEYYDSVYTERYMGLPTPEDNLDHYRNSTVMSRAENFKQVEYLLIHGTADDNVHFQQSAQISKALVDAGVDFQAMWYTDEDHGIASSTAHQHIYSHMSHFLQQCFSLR
Procedure: FIG. 1: Systemic action of orally administered DP IV-inhibitors in healthy Wistar rats.
The course, over time, of the percentage inhibition of plasma-DP IV activity following oral administration of 5 μmol of inhibitor per 300 g of rat (n=2) is shown.
The inhibition of plasma-DP IV (systemic action) was investigated following oral administration of side chain-modified DP IV-inhibitors ([…]) compared with unmodified inhibitors in healthy Wistar rats.

PepT1 [2] = biological target: T2, PepT1 (Oryctolagus cuniculus, UniProt P36836); experiment: Inhibition of 3H-D-Phe-Ala binding to PepT1-expressing P. pastoris cells; details: read-out: EC50: effective concentration inhibiting the binding of 3H-D-Phe-Ala to PepT1-expressing P. pastoris cells by 50%
T2 construct: expressed in transfected cells
T2 sequence (P36836 1-707): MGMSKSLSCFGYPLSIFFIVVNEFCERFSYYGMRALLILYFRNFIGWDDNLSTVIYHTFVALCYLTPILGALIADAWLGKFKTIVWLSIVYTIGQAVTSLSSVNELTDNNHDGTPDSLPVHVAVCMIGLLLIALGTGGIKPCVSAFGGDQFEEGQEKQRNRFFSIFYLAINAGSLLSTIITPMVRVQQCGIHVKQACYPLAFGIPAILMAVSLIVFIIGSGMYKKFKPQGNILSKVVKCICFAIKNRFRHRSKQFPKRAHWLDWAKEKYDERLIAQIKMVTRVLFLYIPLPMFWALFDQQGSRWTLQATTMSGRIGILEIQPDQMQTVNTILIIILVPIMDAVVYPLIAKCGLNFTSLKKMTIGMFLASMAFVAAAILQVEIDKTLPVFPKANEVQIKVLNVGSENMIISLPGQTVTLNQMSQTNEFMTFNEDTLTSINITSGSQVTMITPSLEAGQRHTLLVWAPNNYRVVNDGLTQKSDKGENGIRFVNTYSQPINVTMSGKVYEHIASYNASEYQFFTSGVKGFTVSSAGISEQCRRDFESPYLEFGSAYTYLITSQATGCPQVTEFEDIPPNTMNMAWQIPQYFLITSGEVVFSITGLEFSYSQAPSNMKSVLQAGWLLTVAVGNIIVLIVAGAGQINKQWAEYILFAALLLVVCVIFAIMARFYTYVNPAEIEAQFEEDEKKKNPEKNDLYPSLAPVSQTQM
Procedure: (§1) Side chain-modified glutamylthiazolidines having a structure H-Glu(X)-Thia were synthesized, with polyethylene glycol or glycine oligomers of various chain lengths being used as X (see Method A for description of synthesis). The binding characteristics of those derivatives and their transportability by the peptide transporter PepT1 were investigated and the Ki values with respect to DP IV were determined (Table 1).

PepT1 [3] = experiment: Transport at PepT1-expressing X. leavis oocytes, two-electrode voltage clamp method; type: cell-based; design: unit not given here; details: PepT1-expressing oocytes of X. leavis, n.d. = not detectable
Procedure: as §1

N[C@@H](CCC(=O)NCC(=O)NCC(=O)NCC(=O)O)C(=O)N1CCSC1 (as salt: trifluoroacetate) [H-Glu(Gly3)-Thia]
melting point: 91 to 94 °C

N[C@@H](CCC(=O)NCC(=O)O)C(=O)N1CCSC1 [Glu(Gly)-Thia]
Transport of the inhibitor [1]: transported completely

N[C@@H](CCC(=O)NCC(=O)NCC(=O)NCC(=O)NCC(=O)NCC(=O)O)C(=O)N1CCSC1 [H-Glu(Gly5)-Thia]
Systemic action (inhibition of plasma-DP IV) after oral administration (plasma-DP IV): no systemic action of the orally administered active ingredient is detectable

NC(CCC(=O)O)C(=O)N1CCSC1 (stereo not drawn) [H-Glu-Thia]
EC50 (PepT1 [2]): 1.1 mM | Imax: inward currents generated by the transport (PepT1 [3]): 35 ± 13

N[C@@H](CCCCNC(=O)OCc1ccc([N+](=O)[O-])cc1)C(=O)N1CCSC1 [Lys(Z-NO2)-Thia]
Transport of the inhibitor [1]: transported completely

H-Glu(PEG)-Thia
EC50 (PepT1 [2]): > 10 mM

H-Gly(NHOH)-Thia
EC50 (PepT1 [2]): 3.18 mM | Imax: inward currents generated by the transport (PepT1 [3]): 42 ± 11
